Laboratory results taken from patent publication US20090054403A1, “Treatment of Post-Traumatic Stress Disorder” (priority 2007, published 2009).

Tested on: tissue noradrenaline and dopamine content
Assay: Tissue catecholamines in SHR after three oral doses 12 h apart
Format: in vivo, spontaneously hypertensive rats (SHR)
Experimental: The activity of nepicastat at twelve selected enzymes and receptors was determined using established assays. Details of individual receptor radioligand binding assays can be found in Wong et al (1993). Binding data were analyzed by iterative curve-fitting to a four parameter logistic equation. Ki values were calculated from IC50 values using the Cheng-Prusoff equation. Enzyme inhibitory activity was expressed as IC50 (concentration required to produce 50% inhibition of enzyme activity). Male SHRs (15-16 weeks old, Charles River, Wilmington, Mass., USA) were used in the study. On the day of the study, animals were weighed and randomly assigned to be dosed with either vehicle (control) or the appropriate dose of nepicastat (3, 10, 30 or 100 mg.kg^−1, po) or (R)-5-Aminomethyl-1-(5,7-difluoro-1,2,3,4-tetrahydronaphth-2-yl)-2,3-dihydro-2-thioxo-1H-imidazole hydrochloride (30 mg.kg^−1, po) three consecutive times, twelve hours apart. At six hours after the third dose, the rats were anaesthetized with halothane, decapitated and tissues (cerebral cortex, mesenteric artery and left ventricle) were rapidly harvested, weighed, placed in iced perchloric acid (0.4 M), frozen in liquid nitrogen and stored at −70° C. until subsequent analysis. To quantify noradrenaline and dopamine concentrations, tissues were homogenized by brief sonication and centrifuged at 13,000 rpm for 30 minutes at 4° C. The supernatant, spiked with 3,4-dihydroxybenzylamine (internal standard), was assayed for noradrenaline and dopamine by HPLC using electrochemical detection.
In vivo biochemical studies in spontaneously hypertensive rats (SHR) and normal dogs. Mate SHR (15-16 week old, Charles River, Wilmington, Mass.) were used in the study. On the day of the study, the animals were weighed and randomly assigned to receive either placebo (vehicle) or the appropriate dose of 2a, 2b or 1. Each rat was dosed orally three times, 12 h apart, beginning in the morning. At 6 h after the third dose, the rats were anesthetized with halothane, decapitated, and the tissues (cerebral cortex, mesenteric artery and left ventricle) were rapidly harvested, weighed, placed in iced 0.4 M perchloric acid, frozen in liquid nitrogen and stored at −70° C. until analysis. Tissue NE and DA concentrations were assayed by HPLC using electrochemical detection.
Fifteen to sixteen week old male spontaneously hypertensive rats (SHR) (Charles River Labs) were allowed food and water ad libitum. Animals were weighed and randomly assigned to one of the following treatment groups: 1) distilled water vehicle (dH2O), or nepicastat at 3, 10, 30, and 100 mg/kg, 2) (R)-5-Aminomethyl-1-(5,7-difluoro-1,2,3,4-tetrahydronaphth-2-yl)-2,3-dihydro-2-thioxo-1H-imidazole hydrochloride at 30 mg/kg in distilled water, or 3) PEG 400:dH2O vehicle or RS-2643 1-000 at 30 mg/kg. Each rat was dosed orally (p.o., using a gavage needle) three times 12 hours apart, beginning in the morning. At six hours after the third dose rats were anesthetized with halothane, decapitated, and the cortex, mesenteric artery, and left ventricle were rapidly harvested, weighed, placed in iced 0.4 M perchioric acid, frozen in liquid nitrogen, and stored at −70° C. Tissue dopamine and norepinephrine concentrations were assayed by high performance liquid chromatography and electrochemical detection.
Four series of statistical analyses were performed. The first series compared the rats treated with various doses of nepicastat, and (R)-5-Aminomethyl-1-(5,7-difluoro-1,2,3,4-tetrahydronaphth-2-yl)-2,3-dihydro-2-thioxo-1H-imidazole hydrochloride at 30 mg/kg to the vehicle control animals. A nonparametric one-way analysis of variance (ANOVA) with factor Dose and blocking factor Day was performed for each tissue and strain separately. Overall results are reported. Pairwise analysis between treated and controls at each dose were carried out using Dunnett's test to control the experiment-wise error rate. […]

[1] = 100 mg/kg po x3, 6 h after third dose
[2] = conclusion over rat dose-response studies
[3] = doses of 3, 10, 30 and 100 mg/kg

Compound: Cl.NCc1c[nH]c(=S)n1[C@@H]1CCc2c(F)cc(F)cc2C1 [R-enantiomer, (R)-5-Aminomethyl-1-(5,7-difluoro-1,2,3,4-tetrahydronaphth-2-yl)-2,3-dihydro-2-thioxo-1H-imidazole hydrochloride]
- dopamine vs vehicle, cerebral cortex (30 mg/kg po x3): significant increase
- dopamine vs vehicle, left ventricle (30 mg/kg po x3): significant increase
- dopamine vs vehicle, mesenteric artery (30 mg/kg po x3): significant increase
- dopamine/norepinephrine ratio vs vehicle, cerebral cortex (30 mg/kg po x3): no effect
- dopamine/norepinephrine ratio vs vehicle, left ventricle (30 mg/kg po x3): significant increase
- dopamine/norepinephrine ratio vs vehicle, mesenteric artery (30 mg/kg po x3): significant increase
- increase in DA/NE ratio, cerebral cortex (30 mg/kg po x3): 1.1 fold
- increase in DA/NE ratio, left ventricle (30 mg/kg po x3): 3.5 fold
- increase in DA/NE ratio, mesenteric artery (30 mg/kg po x3): 2.6 fold
- norepinephrine vs vehicle, cerebral cortex (30 mg/kg po x3): significant increase
- norepinephrine vs vehicle, left ventricle (30 mg/kg po x3): did not significantly lower
- norepinephrine vs vehicle, mesenteric artery (30 mg/kg po x3): did not significantly lower

Compound: Fc1cc(F)cc(Cn2cc[nH]c2=S)c1 [SKF 102698, reference compound]
- dopamine vs vehicle, cerebral cortex (30 mg/kg po x3): significantly greater (p<0.01) than vehicle
- dopamine vs vehicle, left ventricle (30 mg/kg po x3): significantly greater (p<0.01) than vehicle
- dopamine vs vehicle, mesenteric artery (30 mg/kg po x3): significantly greater than vehicle
- dopamine/norepinephrine ratio vs vehicle, cerebral cortex (30 mg/kg po x3): significantly (p<0.01) greater than vehicle
- dopamine/norepinephrine ratio vs vehicle, left ventricle (30 mg/kg po x3): significantly (p<0.05) greater than vehicle
- dopamine/norepinephrine ratio vs vehicle, mesenteric artery (30 mg/kg po x3): significantly greater than vehicle
- increase in DA/NE ratio, cerebral cortex (30 mg/kg po x3): 2.7 fold
- increase in DA/NE ratio, left ventricle (30 mg/kg po x3): 3.5 fold
- increase in DA/NE ratio, mesenteric artery (30 mg/kg po x3): 5.5 fold
- norepinephrine vs vehicle, cerebral cortex (30 mg/kg po x3): significantly lower than vehicle
- norepinephrine vs vehicle, left ventricle (30 mg/kg po x3): not different from vehicle
- norepinephrine vs vehicle, mesenteric artery (30 mg/kg po x3): significantly lower than vehicle

Compound: Cl.NCc1c[nH]c(=S)n1[C@H]1CCc2c(F)cc(F)cc2C1 [nepicastat, (S)-5-Aminomethyl-1-(5,7-difluoro-1,2,3,4-tetrahydronaphth-2-yl)-2,3-dihydro-2-thioxo-1H-imidazole hydrochloride]
- increase in DA/NE ratio, cerebral cortex (30 mg/kg po x3): 1.5 fold
- increase in DA/NE ratio, left ventricle (30 mg/kg po x3): 7.5 fold
- increase in DA/NE ratio, mesenteric artery (30 mg/kg po x3): 8.3 fold
- maximal increase in DA/NE ratio, artery (mesenteric) (100 mg/kg po x3): 14 fold
- maximal increase in DA/NE ratio, cerebral cortex (100 mg/kg po x3): 3.2 fold
- maximal increase in DA/NE ratio, left ventricle (100 mg/kg po x3): 11 fold
- decrease in noradrenaline, cerebral cortex [1]: 42%
- decrease in noradrenaline, left ventricle [1]: 35%
- decrease in noradrenaline, mesenteric artery [1]: 47%
- increase in dopamine, cerebral cortex [1]: 86%
- increase in dopamine, left ventricle [1]: 800%
- increase in dopamine, mesenteric artery [1]: 820%
- norepinephrine concentration vs vehicle, mesenteric artery (10, 30 and 100 mg/kg): not significantly less (p>0.05) than vehicle
- dopamine/norepinephrine ratio vs vehicle, mesenteric artery (all doses (3-100 mg/kg)): significantly (p<0.05) greater than vehicle
- in vivo potency compared with the R enantiomer (all three tissues at 30 mg/kg): more potent than the R enantiomer
- dose inhibiting DBH in the cerebral cortex of rats [2]: 60 to 100 mg/kg/day
- dose inhibiting DBH in the left ventricle and mesenteric artery of rats [2]: 1 to 6 mg/kg/day
- dopamine concentration vs vehicle, left ventricle [3]: significantly (p<0.05) greater than vehicle
- dopamine concentration vs vehicle, mesenteric artery [3]: significantly (p<0.05) greater than vehicle
- dopamine/norepinephrine ratio vs vehicle, left ventricle [3]: significantly (p<0.05) greater than vehicle
- norepinephrine concentration vs vehicle, left ventricle (doses of 10, 30 and 100 mg/kg): significantly (p<0.05) lower than vehicle
- dopamine concentration vs vehicle, cerebral cortex (doses of 30 and 100 mg/kg): significantly (p<0.05) greater
- dopamine/norepinephrine ratio vs vehicle, cerebral cortex (doses of 30 and 100 mg/kg): significantly (p<0.05) greater
- norepinephrine concentration vs vehicle, cerebral cortex (doses of 30 and 100 mg/kg): significantly (p<0.05) lower
- doses at which catecholamine changes attained statistical significance (p<0.05) (mesenteric artery and left ventricle): > 3 mg/kg
- in vivo effectiveness compared with SKF 102698 (three doses at 30 mg/kg over 24 hours): more effective than SKF 102698 in the mesenteric artery and left ventricle, but less effective in the cerebral cortex
